Measurements: paper PMC8451604, “Rational formulation engineering of fraxinellone utilizing 6-O-α-D-maltosyl-β-cyclodextrin for enhanced oral bioavailability and hepatic fibrosis therapy” (Drug Delivery, 2021)
≈ marks a conversion by molar mass, not a printed value. Entries after “also recorded” stand apart in the source; their conditions may differ.

Key:
[1] = Octanol/water partition coefficient (Log P) measurement; assay type: physicochemical; conditions: octanol/PBS (mutually saturated, equal volumes); pH 1.2, 4.5 and 6.8, 37 °C
Description: The mixtures were placed in an air bath shaking at 100 rpm at 37 °C for 24 h. The samples were then centrifuged (12,000 rpm, 10 min) for oil/water phase separation. The drug concentration in these two phases was analyzed by HPLC, respectively.

[2] = Stability of Frax in artificial gastrointestinal fluid (SGF/SIF); assay type: physicochemical; conditions: SGF/SIF with or without enzymes, 37 °C
Description: The stability studies were performed according to the previous study (Zhang et al., [2015]). Briefly, 20 μL of DMSO solution of Frax (10 mg/mL) was added to 10 mL of simulated gastric fluid (SGF) or simulated intestinal fluid (SIF) containing pepsin/without pepsin. Afterward, the samples were placed in a shaker (100 rpm, 37 °C). At predetermined timepoints, a suitable amount of samples were withdrawn and mixed with methanol. After a thorough vortex, the mixture was centrifuged and the resulted supernatant was subjected to HPLC to determine Frax content.

[3] = Stability of Frax in homogenates of gastrointestinal segments; assay type: in vitro ADME, rats; conditions: rat GI segment homogenates, 37 °C
Description: GI segments (the stomach, duodenum, jejunum, ileum, and colon) were immediately isolated after the rats were sacrificed. Thereafter, the mucosa of each segment was homogenized and centrifuged following gently scraping. The supernatant was separated and subjected to BCA protein quantitative kit to adjust the final protein concentration to 1 mg/mL. DMSO solution of Frax (5 mg/mL) was added in the homogenate to achieve a final drug concentration of 20 μg/mL. After incubation at 37 °C for predetermined durations, samples were immediately precipitated by methanol, centrifuged, and injected into HPLC to measure the Frax concentration. The drug concentration measured before the incubation was set to 100%.

[4] = Solubility of Frax in various solubilizers (50% solution); assay type: physicochemical; conditions: 37 °C
Description: Excess Frax was added into Solutol HS 15, Tween 80, PEG 400, Transcutol P, β-CD, SBE-β-CD, HP-β-CD, and G2-β-CD solution (50%), respectively. The samples were vortexed followed by incubation in a shaker (120 rpm, 37 °C) for 72 h. After the process, the samples were centrifuged to separate the supernatant containing dissolved Frax. After suitable dilution and filtration, Frax concentration in the supernatant was analyzed by the HPLC method.

[5] = Phase solubility study of Frax with CDs; assay type: physicochemical; conditions: 37 °C; for solubility at 72 h: aqueous with cosolvent or surfactant or cyclodextrin, thermodynamic from solid; for Frax solubility increase: vs water
Description: Frax was excessively mixed with increasing molar concentrations (0–350.00 mM) of each CD aqueous solution. […] The samples were subjected to HPLC analysis after centrifugation (4024.8 g, 10 min). Phase solubility profiles were plotted by monitoring Frax concentration as a function of the molar concentration of each CD. Based on the phase solubility curves, we calculated the apparent stability constants (Kc, L/mol) according to Equation (1): (1) Kc=Slope/S0(1−Slope) where S0 is the water solubility of Frax at equilibrium.

[6] = In vitro drug release by dialysis method; assay type: physicochemical; conditions: within 6 h, pH 1.2, 6.8 and 7.4 media, 37 °C
Description: In vitro drug release performance was studied by a dialysis method in phosphate buffer (pH 6.8 and 7.4) and 0.1 M HCl (pH 1.2) at 37 °C. Briefly, a certain volume of Frax suspension, SBE-β-CD-Frax, G2-β-CD-Frax, and HP-β-CD-Frax dispersion solution were enclosed in 1500 Da dialysis bags, respectively. The dialysis bag was then transferred and immersed into the release medium under gentle shaking. After 0.5, 1, 1.5, 2, 2.5, 3.5, 4, and 6 h, 1 mL of the release media was aspirated and supplemented with 1 mL of fresh media. The Frax concentration in the samples was analyzed by HPLC. The cumulative drug release (%) was calculated with the following Equation (2) (Chuang et al., [2018]): (2) Drug release (%)=Ve∑1n−1Ci+V0Cn/mFrax where V0 (mL) is the release media volume, Cn (μg/mL) is the drug concentration in the sample, Ve (mL) is the replaced medium volume, and mFrax (mg) is the amount of drug in the sample.

[7] = Oral bioavailability / pharmacokinetic study; parameters: species or system Male Wistar rats; conditions: male, Wistar, rat, in vivo
Description: Pharmacokinetic studies were conducted in Male Wistar rats (180–220 g) supplied by the Center of laboratory animals, Zhengzhou University. The Use Committee of Zhengzhou University (IRB0000861) approved the experimental protocol. In addition, all animal experiments were conducted according to the Guidelines of Animal Experimentation of the Laboratory Animal Center. Rats were acclimatized before experiments and provided free access to food and water.
Rats divided into five groups at random (n = 5) were dosed with the following formulations: intravenous administration of Frax ([…]) or orally given Frax suspension (150 mg/kg) or SBE-β-CD-Frax, HP-β-CD-Frax, and G2-β-CD-Frax (150 mg/kg), respectively. Blood (0.4 mL) was obtained by orbital sinus collection at 0.17, 0.25, 0.75, 1, 1.5, 2, 4, 6, 8, and 10 h post-administration. To determine Frax concentration in plasma, 200 μL methanol, 100 μL acetonitrile, and 20 μL 5% hydrochloric acid were added to rat plasma (100 μL) gradually. Following vortexing and centrifugation (4024.8 g, 10 min), the supernatant was collected, dried by air blowing at room temperature, and reconstituted with 150 μL of the mobile phase. The samples were sonicated and vortexed until homogeneity. After centrifugation, the supernatant (50 μL) was aspirated and injected into HPLC. The standard curve encompassed a linear range of 0.05–10 μg/mL and was used to calculate Frax concentration in plasma. Pharmacokinetic parameters were calculated using DAS software version 3.0 and reported as mean ± standard deviation. The oral absolute and relative bioavailability (Fa and Fr) were calculated using the following Equations (3) and (4): (3) Fa(%)=AUC^testDose^i.v/AUC^i.vDose^test (4) Fr(%)=AUCtest/AUCreference where AUC is the area under the pharmacokinetic curves

[8] = parameters: method as in Ruan et al., 2006; conditions: ref Ruan et al., 2006; cited from earlier work

Structure (SMILES): CC1=C2C(=O)O[C@@H](c3ccoc3)[C@]2(C)CCC1 [Frax, Fraxinellone]
- logP at 24 h [1]: 3.2 ± 0.17
- degradation in simulated GI fluids [2]: rather stable; also recorded: negligible degradation
- degradation in GI homogenates [3]: negligible degradation
- solubility at 72 h ([4]; 50% (w/v) G2-β-CD solution in water): 12700 µg/mL (≈ 54.8 mM)
- Frax solubility in G2-β-CD solution relative to water ([4]; 50% (w/v) G2-β-CD solution vs water): 160 times
- solubility at 72 h ([5]; 8.82 mM G2-β-CD aqueous solution, with 8.82 mM G2-β-CD): 430 µg/mL (≈ 1.85 mM)
- solubility at 72 h ([5]; 8.82 mM HP-β-CD aqueous solution, with 8.82 mM HP-β-CD): 330 µg/mL (≈ 1.42 mM)
- solubility at 72 h ([5]; 8.82 mM SBE-β-CD aqueous solution, with 8.82 mM SBE-β-CD): 600 µg/mL (≈ 2.58 mM)
- solubility at 72 h ([5]; 8.82 mM β-CD aqueous solution, with 8.82 mM β-CD): 310 µg/mL (≈ 1.33 mM)
- solubility at 72 h ([5]; 350 mM G2-β-CD aqueous solution, with 350 mM G2-β-CD): 12300 µg/mL (≈ 53 mM)
- solubility at 72 h ([5]; 350 mM HP-β-CD aqueous solution, with 350 mM HP-β-CD): 6550 µg/mL (≈ 28.2 mM)
- solubility at 72 h ([5]; 350 mM SBE-β-CD aqueous solution, with 350 mM SBE-β-CD): 13600 µg/mL (≈ 58.4 mM)
- Frax solubility increase ([5]; with 8.82 mM G2-β-CD): 5.45 fold
- Frax solubility increase ([5]; with 8.82 mM HP-β-CD): 4.18 fold
- Frax solubility increase ([5]; with 8.82 mM SBE-β-CD): 7.61 fold
- Frax solubility increase ([5]; with 8.82 mM β-CD): 3.93 fold
- Frax solubility increase ([5]; with 350 mM G2-β-CD): 156.19 fold
- Frax solubility increase ([5]; with 350 mM HP-β-CD): 83.04 fold
- Frax solubility increase ([5]; with 350 mM SBE-β-CD): 171.91 fold
- cumulative drug release [6]: < 20%
- bioavailability [7]: 0.5%
- AUC(0-inf) ([7]; iv, 10 mg/kg): 11800 ± 1430 ng·h/mL
- AUC(0-inf) ([7]; po, 150 mg/kg): 970 ± 230 ng·h/mL
- Cmax ([7]; po, 150 mg/kg): 490 ± 290 ng/mL
- Tmax ([7]; po, 150 mg/kg): 1 ± 0.35 h
- intestinal permeability [8]: good intestinal permeability
